According to patent US20240002428A1, “STORAGE STABLE CAGED HAPTENS” (VENTANA MEDICAL SYSTEMS, INC., priority 2021, published 2024):

Test: Hydrolytic stability study of caged haptens at elevated temperature (reverse phase HPLC)
Assay type: physicochemical
Details: 100 mM PBS (pH 7.2), 37° C. oven, after 50 days of storage
Method: To study the hydrolytic stability of caged hapten conjugates having any one of Formulas (IVA), (IVB), or (VA)-(VF) (see FIG. 9) model compounds were subjected to a stability study at elevated temperatures.
Model compounds tested were the NP hapten with two different caging groups along with caged DIG, as set forth below:
The samples of caged NP and caged DIG were stored in 100 mM PBS (pH 7.2) in a 37° C. oven. The buffer and pH were representative of storage conditions for an antibody conjugate. A temperature of 37° C. was chosen to stress the sample and accelerate hydrolytic events. Normal storage conditions or the antibody conjugate were believed to be about 4° C. Aliquots of the samples were removed at regular intervals and tested by reverse phase HPLC on a Waters XBridge column on a Waters Alliance e2695 running Empower 3 (Waters). Each sample HPLC trace was examined for evidence of decaging or other forms of decomposition. […] The caged DIG testing was monitored out to 120 days and <0.5% hydrolysis was still observed at this point.

Row | Structure (SMILES) | hydrolysis (caged hapten hydrolyzed to the native hapten, percentage of the original material) [%]
1 | COc1cc(Cn2nc(C(=O)NCCN)cc2[N+](=O)[O-])cc(OC)c1OP(=O)(O)O [generation 1 caged-NP] | ~15.5
2 | COc1cc(Cn2nc(C(=O)NCCN)cc2[N+](=O)[O-])cc(OC)c1OCOP(=O)(O)O [generation 2 caged-NP] | ~6
